Experimental data: article PMC4792582, “Effect of ceritinib (LDK378) on enhancement of chemotherapeutic agents in ABCB1 and ABCG2 overexpressing cells in vitro and in vivo” (Oncotarget, 2015)

Experiments:
ABCG2 (BCRP/MXR) [1] = molecular target: T1, ABCG2 (BCRP/MXR) (Homo sapiens, UniProt Q9UNQ0); assay: competition of […]-IAAP photoaffinity labeling in membranes; also effect on vanadate-sensitive ATPase activity; format: binding; design: Crude membranes from High Five insect cells expressing ABCG2
T1 sequence (Q9UNQ0 1-655): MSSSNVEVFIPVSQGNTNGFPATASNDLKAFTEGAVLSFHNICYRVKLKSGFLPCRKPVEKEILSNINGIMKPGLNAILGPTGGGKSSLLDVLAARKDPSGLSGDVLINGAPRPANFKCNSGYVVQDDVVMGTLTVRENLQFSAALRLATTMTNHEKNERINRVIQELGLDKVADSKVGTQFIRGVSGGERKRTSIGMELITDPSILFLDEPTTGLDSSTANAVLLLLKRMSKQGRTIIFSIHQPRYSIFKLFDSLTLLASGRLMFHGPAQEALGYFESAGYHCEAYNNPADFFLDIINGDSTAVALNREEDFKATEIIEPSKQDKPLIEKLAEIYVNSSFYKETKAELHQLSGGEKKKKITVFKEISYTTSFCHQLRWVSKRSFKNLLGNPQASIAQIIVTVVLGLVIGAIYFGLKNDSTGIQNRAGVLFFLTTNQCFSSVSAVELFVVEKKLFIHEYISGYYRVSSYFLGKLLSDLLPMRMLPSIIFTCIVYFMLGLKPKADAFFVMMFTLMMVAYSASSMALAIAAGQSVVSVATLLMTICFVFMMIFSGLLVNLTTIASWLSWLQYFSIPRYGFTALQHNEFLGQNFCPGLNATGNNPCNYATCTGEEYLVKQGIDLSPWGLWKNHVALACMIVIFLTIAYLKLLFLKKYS

ABCG2 (BCRP/MXR) [2] = molecular target: T1, ABCG2 (BCRP/MXR); assay: reversal of mitoxantrone resistance in ABCG2-transfected versus mock HEK293 cells (MTT), […]; format: cell-based; design: HEK293/ABCG2-R2 stably transfected cells

Structure (SMILES) | competition of [125I]-IAAP photoaffinity labeling in membranes; also effect on v (ABCG2 (BCRP/MXR) [1]) | (fold-reversal) / HEK293/ABCB1 (ABCG2 (BCRP/MXR) [2])
Cc1cc(Nc2ncc(Cl)c(Nc3ccccc3S(=O)(=O)C(C)C)n2)c(OC(C)C)cc1C1CCNCC1 [Ceritinib, 5-chloro-N2-(2-isopropoxy-5-methyl-4-(piperidin-4-yl)phenyl)-N4-(2-(isopropylsulfonyl)phenyl)pyrimidine-2,4-diamine] | ceritinib binds with high affinity to both the ABCB1 and ABCG2 substrate-binding sites | –
COc1ccc2c3c([nH]c2c1)[C@H](C=C(C)C)N1C(=O)[C@@H]2CCCN2C(=O)[C@@H]1C3 [Fumitremorgin C] | – | 26.81 fold-reversal
